{"source": "paper PMC6177439", "about": "“Peptide-oligonucleotide conjugates exhibiting pyrimidine-X cleavage specificity efficiently silence miRNA target acting synergistically with RNase H” (Scientific Reports, 2018)", "key": {"miR-21 [1]": {"test_system": "miR-21", "test": "Gel-retardation assay, hybridization with miR-21", "format": "binding", "conditions": "at equimolar concentration and higher; miR-21 1 µM, 0.5-10 µM oligonucleotide or conjugate, 37 °C, 1 h, 50 mM Tris-HCl pH 7.0, 0.2 M KCl, 1 mM EDTA, 15% native PAAG", "protocol": "The samples were loaded onto the running gel immediately after quenching the reaction with an interval of 1 min. […] To obtain quantitative data, gels were dried and analyzed using Molecular Imager FX (Bio-Rad, USA). The extent of binding of oligonucleotide to miR-21 was determined using Quantity One software as a ratio of radioactivity measured in the complex to the total radioactivity applied onto the gel lane."}, "miR-21^hybrid": {"test_system": "miR-21^hybrid", "test": "RNA cleavage assay, miR-21^hybrid", "format": "biochemical", "conditions": "RNA 1 µM, conjugate 20 µM, 37 °C, 24 h time point", "protocol": "(§1) The reaction mixture (5 µl) contained 10^5 cpm (Cherenkov’s counting) of [^32P]-RNA, 1 μM unlabeled RNA, and one of the conjugates at a concentration ranging from 1 to 100 μM, 50 mM Tris-HCl, pH 7.0, 0.2 M KCl, and 1 mM EDTA. […] To identify cleavage sites, imidazole and T1-ladders produced by partial RNA cleavage with 2 M imidazole buffer (pH 7.0)[41] and with RNase T1[42], respectively, were run in parallel. To obtain quantitative data, gels were dried and analyzed using Molecular Imager FX (Bio-Rad, USA). The total extent of RNA cleavage and the extent of RNA cleavage at each individual site were determined with Quantity One software."}, "miR-21 [2]": {"test_system": "miR-21", "test": "RNA cleavage assay, miR-21", "format": "biochemical", "conditions": "miR-21 1 µM, conjugate 100 µM, 37 °C, 0-144 h", "protocol": "as §1"}, "miR-17 [3]": {"test_system": "miR-17", "test": "miR-17 level in B16 cells by stem-loop qPCR", "format": "cell-based, murine", "conditions": "for decrease in the miR-17 level: 24 h after transfection with Lipofectamine 2000, 0.5 and 1 µM, normalized to U6, mean of three independent experiments", "protocol": "Murine B16 melanoma cells (1.5–1 × 10^5 per well of 24-well plate) were pre-seeded in DMEM containing 10% FBS a day before transfection and were incubated at 37 °C in a humidified atmosphere with 5% CO2. Before the transfection, the medium was replaced by serum-free and antibiotic-free DMEM, and cells were incubated for 4 h with 0.05–1 µM of conjugate 4 precomplexed with Lipofectamine 2000 (Invitrogen, USA) in Opti-MEM medium according to manufacturer’s instructions. Then, the medium was replaced by culture medium containing 10% FBS and 1% antibiotic antimycotic solution ([…] streptomycin, 10000 IU/mL penicillin, and 25 µg/mL amphotericin), and the cells were cultivated for 24 h under the same conditions. After 24 h, total RNA was isolated from the cells using TRIzol Reagent (Invitrogen, USA) according to the manufacturer’s protocol.\nExpression of miR-17, miR-21, miR-18a and let-7g in B16 cells was analyzed using stem-loop PCR technology[43],[44]. cDNA synthesis was carried out using SuperScript III reverse transcriptase (SSIII RT, Invitrogen, USA) as previously described. The RT and PCR primers used in the study are presented in Table S1 (Supplementary information). PCR amplification was carried out in a total volume of 20 µl, using Maxima Hot Start Taq DNA polymerase (Thermo Scientific, USA), 1 × PCR Buffer, 1.5 mM MgCl2, 0.2 mM dNTPs, 1 × EvaGreen (Biotium, Hayward, USA), and […] of PCR sense and antisense primers. The reaction was performed with initial preheating at 94 °C for 4 min and 40 cycles of 94 °C for 40 s, 61 °C for 30 s, and 72 °C for 30 s, followed by melting point determination. The obtained PCR data were analyzed using standard Bio-Rad iQ5 v.2.0 software. For each sample, the threshold cycle (Ct) was determined. Quantitative assessment of the level of transcripts representation and relative miRNA expression was performed by comparing the Ct values for miR-17 and a reference U6."}, "miR-18a": {"test_system": "miR-18a", "test": "Off-target miR-18a level in B16 cells by stem-loop qPCR", "format": "cell-based, murine", "conditions": "1 µM, 24 h, Lipofectamine 2000, normalized to U6"}, "miR-17 [4]": {"test_system": "miR-17", "test": "Cleavage of duplexes miR-17/ON and miR-17/conjugate by RNase H", "format": "biochemical", "conditions": "miR-17 10 µM, conjugate 5 µM, 37 °C", "protocol": "The reaction mixture (10 µl) contained 10^5 cpm (Cherenkov’s counting) of [^32P]-miR-17, 10 µM unlabeled miR-17, oligonucleotide 4 or conjugate 4 at a concentration of 5 µM, 50 mM Tris-HCl, pH 7.0, 0.2 M KCl, and 1 mM EDTA was incubated at 37 °C for 20 min. Then, RNase H (Thermo Scientific, USA) was added to the reaction mixture to a final concentration 100 U/ml and incubated at 37 °C. At different time points, 30 min and 1, 2, 4, 8, and 24 h, an aliquot was taken and the reaction was quenched by precipitation of RNA with 2% LiClO4 in acetone. RNA cleavage products were analyzed by electrophoresis in denaturing gel as described above."}, "E2F1": {"test_system": "E2F1", "test": "Western blot of miR-17 protein target E2F1 in B16 cells", "format": "cell-based, murine", "conditions": "1 µM, 72 h after transfection, GAPDH internal control", "protocol": "Cell lysates were separated in 12.5% SDS-PAGE and transferred to a PVDF membrane using a semi-dry transfer. The membranes were blocked for 1 h in 3% nonfat dried milk in TBST (20 mM Tris- HCl, pH 7.6,137mMNaCl, 0.1% Tween), and incubated with primary antibodies against E2F1 (ab179445, Abcam, UK, 1:500) and reference protein GAPDH (ab9485, Abcam, UK, 1:1000) at +4 °C for night. After three washes with TBST, membranes were incubated with secondary HRP-conjugated goat anti-rabbit antibodies (ab6721, Abcam, UK) at room temperature for 1 h. After three washes with TBST luminescence detection was performed by Versadoc 4000 MP (Bio-Rad, USA) using Chemiluminescent reagent kit (Abcam, USA). Data were analyzed using GelPro 4.0 software (Media Cybernetics, USA)."}, "melanoma B16 cells": {"test_system": "melanoma B16 cells", "test": "xCELLigence real-time analysis of cell proliferation", "format": "cell-based, murine", "conditions": "1 µM with Lipofectamine 2000, 120 h; for cell index: untreated control cell index 5", "protocol": "Proliferation experiments were performed using an xCELLigence real-time cell analysis (RTCA) system (ACEABiosciences, USA) in an atmosphere of 5% CO2 at 37 °C. B16 melanoma cells were seeded at a concentration of 5 × 10^3 cells per well of 16-well E-Plates. The following day, the cells were transfected with conjugate 4, control conjugate 7 or oligonucleotide 4 at 1 µM concentration using Lipofectamine™ 2000 (Invitrogen, USA). In 4 h after transfection, the medium in the wells was replaced with DMEM medium containing 10% of FBS and 1% of antibiotics antimycotic solution. Cell proliferation experiments were run for 120 h and Cell Index was monitored every 30 min for the whole experiment duration. Four replications of each cell densities were used in the cell proliferation experiment."}, "miR-21 [5]": {"test_system": "miR-21", "test": "Off-target miR-21 level in B16 cells by stem-loop qPCR", "format": "cell-based, murine", "conditions": "1 µM, 24 h, Lipofectamine 2000, normalized to U6"}, "let 7-g": {"test_system": "let 7-g", "test": "Off-target let-7g level in B16 cells by stem-loop qPCR", "format": "cell-based, murine", "conditions": "1 µM, 24 h, Lipofectamine 2000, normalized to U6"}, "miR-17 [6]": {"test_system": "miR-17", "test": "RNA cleavage assay, miR-17", "format": "biochemical", "conditions": "miR-17 1 µM, conjugate 20 µM, 37 °C, 24 h", "protocol": "as §1"}, "[7]": {"test_system": "96 nts fragment of HIV-1 RNA", "set-up": "method as in PMID 15047859, PMID 16615805", "conditions": "non-complementary RNA substrates; cited from earlier work"}}}
{"substance": "NH2—Gly(ArgLeu)4—P—TCAA—(DEG)2—AGT CTG ATA AGC TA [conjugate 1, peptide-oligonucleotide conjugate (miRNase) targeted to miR-21, linear 14 nt oligonucleotide, double DEG linker]", "values": [{"measurement": "hybridization (binding) efficiency with miR-21", "setting": "miR-21 [1]", "value": 25, "unit": "%"}, {"measurement": "total extent of miR-21^hybrid cleavage at a 20-fold excess of conjugates", "setting": "miR-21^hybrid", "value": 55, "unit": "%"}, {"measurement": "cleavage efficiency of miR-21 at a 100-fold excess of conjugate", "setting": "miR-21 [2]", "value": 50, "unit": "%"}]}
{"substance": "NH2—Gly(ArgLeu)4—P—TCAA—(DEG)2—CTGTAAGCACTTTGGTCAGCGAAAGCTGAC [conjugate 4]", "values": [{"measurement": "advantage in inhibition efficiency in comparison with antisense oligonucleotide 4", "setting": "miR-17 [3]", "value": 2, "unit": "fold"}, {"measurement": "decrease in the miR-17 level", "setting": "miR-17 [3]", "value": 80, "unit": "%"}, {"measurement": "lowest concentration with statistically significant reduction of miR-17 level", "setting": "miR-17 [3]; 24 h after transfection, range 0.05-1 µM", "value": 0.1, "unit": "µM"}, {"measurement": "expression level of miR-18a versus controls", "setting": "miR-18a", "value": "no statistically significant differences"}, {"measurement": "increase of conjugate activity (miR-17 cleavage at conjugate sites) in the presence of RNase H", "setting": "miR-17 [4]; RNase H 100 U/ml", "value": 11, "unit": "fold"}, {"measurement": "miR-17 cleavage at RNase H sites during the first 2 h, with RNase H", "setting": "miR-17 [4]; RNase H 100 U/ml, 2 h", "value": 45, "unit": "%"}, {"measurement": "miR-17 cleavage at sites C17-A18 and U21-A22 after 4 h, with RNase H", "setting": "miR-17 [4]; RNase H 100 U/ml, 4 h", "value": 47, "unit": "%"}, {"measurement": "miR-17 destroyed after 8 h, with RNase H", "setting": "miR-17 [4]; RNase H 100 U/ml, 8 h", "value": 95, "unit": "%"}, {"measurement": "miR-17 cleavage by conjugate alone under two-fold excess of RNA", "setting": "miR-17 [4]; no RNase H, 24 h", "value": 9, "unit": "%"}, {"measurement": "increase of the level of E2F1 protein as compared with control", "setting": "E2F1", "value": 2.2, "unit": "fold"}, {"measurement": "cell index", "setting": "melanoma B16 cells", "value": 1}, {"measurement": "fold decrease of growth rate / inhibition of cell proliferation", "setting": "melanoma B16 cells; versus untreated cells", "value": 5, "unit": "fold"}, {"measurement": "expression level of miR-21 versus controls", "setting": "miR-21 [5]", "value": "no statistically significant differences"}, {"measurement": "expression level of let 7-g versus controls", "setting": "let 7-g", "value": "no statistically significant differences"}, {"measurement": "cleavage of miR-17 at a 20-fold excess of conjugate", "setting": "miR-17 [6]", "value": 9, "unit": "%"}]}
{"substance": "NH2—Gly(ArgLeu)4—P—TCAA—(TrEG)2—CGATAAATAACGCGCAAGTCAGCGAAAGCTGACTTG [conjugate 7, control conjugate addressed to luciferase mRNA]", "values": [{"measurement": "decrease in the miR-17 level", "setting": "miR-17 [3]", "value": "does not evoke any statistically significant reduction"}, {"measurement": "increase of the level of E2F1 protein as compared with control", "setting": "E2F1", "value": "no statistically significant change"}, {"measurement": "cell index", "setting": "melanoma B16 cells", "value": 3.2}]}
{"substance": "NH2-Gly(ArgLeu)4-TCAA [short peptide-oligonucleotide conjugate, small chemical ribonuclease used as catalytic construction]", "values": [{"measurement": "cleavage specificity", "setting": "[7]", "value": "Pyr-A cleavage specificity"}]}
{"substance": "NH2—Gly(ArgLeu)4—P—TCAA—(DEG)—CTGTAAGCACTTTGGTCAGCGAAAGCTGAC [conjugate 5, miRNase targeted to miR-17, as conjugate 4 with single DEG linker]", "values": [{"measurement": "cleavage of miR-17 at a 20-fold excess of conjugate", "setting": "miR-17 [6]", "value": 3, "unit": "%"}]}
{"substance": "NH2—Gly(ArgLeu)4—P— (DEG)2—CTGTAAGCACTTTGGTCAGCGAAAGCTGAC [conjugate 6]", "values": [{"measurement": "cleavage of miR-17 at a 20-fold excess of conjugate", "setting": "miR-17 [6]", "value": "complete loss of ribonuclease activity"}]}
{"substance": "NH2—Gly(ArgLeu)4—P—TCAA—(DEG)2—TCTGATAAGCTACGTAGCGAAAGCTACG [conjugate 2]", "values": [{"measurement": "hybridization (binding) efficiency with miR-21", "setting": "miR-21 [1]", "value": 48, "unit": "%"}, {"measurement": "total extent of miR-21^hybrid cleavage at a 20-fold excess of conjugates", "setting": "miR-21^hybrid", "value": 85, "unit": "%"}, {"measurement": "cleavage efficiency of miR-21 at a 100-fold excess of conjugate", "setting": "miR-21 [2]", "value": 50, "unit": "%"}]}
